# Active and inactive are the calls of the source. Residues, ends and D or L forms follow the SMILES beside them.
# How the values were obtained:
# Format in all cases: subcellular
# [1] = target: Core antigen (Hepatitis B virus) (UniProt Q03732); test: Inhibition of Hepatitis B virus capsid formation at 100 uM treated during cell-free HBV Cp T33N mutant synthesis using wheat germ lysates and HBV Cp RNA by Denatured capsid assay based western blot analysis
# Core antigen = Core antigen (Hepatitis B virus, UniProt Q03732); test: Inhibition of Hepatitis B virus capsid formation treated during cell-free wild type HBV Cp synthesis using wheat germ lysates and HBV Cp RNA by Denatured capsid assay based western blot analysis
# [2] = target: Core antigen (Hepatitis B virus) (UniProt Q03732); test: Inhibition of Hepatitis B virus capsid formation at 100 uM treated during cell-free wild type HBV Cp synthesis using wheat germ lysates and HBV Cp RNA by Native capsid assay based western blot analysis
# [3] = target: Core antigen (Hepatitis B virus) (UniProt Q03732); test: Inhibition of Hepatitis B virus capsid formation at 10 uM treated during cell-free HBV Cp T33N mutant synthesis using wheat germ lysates and HBV Cp RNA by Denatured capsid assay based western blot analysis
# [4] = target: Core antigen (Hepatitis B virus) (UniProt Q03732); test: Inhibition of Hepatitis B virus capsid formation at 3 uM treated during cell-free wild type HBV Cp synthesis using wheat germ lysates and HBV Cp RNA by Native capsid assay based western blot analysis
# Chain of Core antigen (Hepatitis B virus) (Q03732 as listed by the source): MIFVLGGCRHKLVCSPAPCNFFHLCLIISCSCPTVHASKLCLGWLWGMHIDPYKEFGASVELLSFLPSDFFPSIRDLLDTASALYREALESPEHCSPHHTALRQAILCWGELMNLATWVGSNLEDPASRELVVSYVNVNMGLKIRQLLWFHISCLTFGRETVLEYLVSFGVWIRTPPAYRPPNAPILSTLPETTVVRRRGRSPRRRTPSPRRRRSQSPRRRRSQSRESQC
# Chain of Core antigen (Q03732 whole entry): as the sequence (Q03732 as listed by the source) above
Structure (SMILES),inhibition [2],also measured
CC[C@H](C)[C@H](NC(=O)[C@H](Cc1c[nH]cn1)NC(=O)[C@H](Cc1ccccc1)NC(=O)[C@H](Cc1c[nH]c2ccccc12)NC(=O)[C@H](CC(C)C)NC(=O)[C@H](CC(C)C)NC(=O)[C@H](CCC(N)=O)NC(=O)[C@H](CCCNC(=N)N)NC(=O)[C@H](Cc1ccccc1)NC(=O)[C@H](CCCCN)NC(=O)[C@H](CC(C)C)NC(=O)CNC(=O)[C@H](CCSC)NC(=O)[C@H](CC(N)=O)NC(=O)[C@@H](NC(C)=O)C(C)C)C(N)=O,Active; Significantly Inhibited Hbv-Capsid Formation Of 72 Peptides Tested,"inhibition [1]: Active; Comparable Activity To Gls4, Positive Control; IC50 (Core antigen): 97.8 µM; inhibition [3]: Active; Same Efficacy As Gls4 Observed"
CCOC(=O)C1=C(CN2CCOCC2)NC(c2nccs2)=NC1c1ccc(F)cc1Br (stereo not drawn),,inhibition [4]: Active
CC[C@H](C)[C@H](NC(=O)[C@H](Cc1c[nH]cn1)NC(=O)[C@H](Cc1ccccc1)NC(=O)[C@H](Cc1c[nH]c2ccccc12)NC(=O)[C@H](CC(C)C)NC(=O)[C@H](CC(C)C)NC(=O)[C@H](CCC(N)=O)NC(=O)[C@H](CCCNC(=N)N)NC(=O)[C@H](Cc1ccccc1)NC(=O)[C@H](CCCCN)NC(C)=O)C(=O)N[C@@H](CO)C(=O)N[C@@H](CS)C(=O)N[C@@H](CC(C)C)C(=O)N[C@H](C(=O)N[C@@H](Cc1ccccc1)C(N)=O)[C@@H](C)O (Ac-KFRQLLWFHISCLTF-NH2),Active; Significantly Inhibited Hbv-Capsid Formation Of 72 Peptides Tested,"inhibition [1]: Active; Comparable Activity To Gls4, Positive Control; IC50 (Core antigen): 43.7 µM; inhibition [3]: Active; Greater Efficacy Compared To Gls4 Observed"
CC[C@H](C)[C@H](N)C(=O)N[C@@H](CCCNC(=N)N)C(=O)N[C@H](C(=O)N1CCC[C@H]1C(=O)N1CCC[C@H]1C(=O)N[C@@H](C)C(=O)N[C@@H](Cc1ccc(O)cc1)C(=O)N[C@@H](CCCNC(=N)N)C(=O)N1CCC[C@H]1C(=O)N1CCC[C@H]1C(=O)N[C@@H](CC(N)=O)C(=O)N[C@@H](C)C(=O)N1CCC[C@H]1C(=O)N[C@H](C(=O)N[C@@H](CC(C)C)C(N)=O)[C@@H](C)CC)[C@@H](C)O (H-IRTPPAYRPPNAPIL-NH2),inactive,
CC[C@H](C)[C@H](NC(=O)[C@H](Cc1c[nH]cn1)NC(=O)[C@H](Cc1ccccc1)NC(=O)[C@H](Cc1c[nH]c2ccccc12)NC(=O)[C@H](CC(C)C)NC(=O)[C@H](CC(C)C)NC(=O)[C@H](CCC(N)=O)NC(=O)[C@H](CCCNC(=N)N)NC(=O)[C@H](Cc1ccccc1)NC(=O)[C@@H](N)CCCCN)C(=O)N[C@@H](CO)C(=O)N[C@@H](CS)C(=O)N[C@@H](CC(C)C)C(=O)N[C@H](C(=O)N[C@@H](Cc1ccccc1)C(N)=O)[C@@H](C)O (H-KFRQLLWFHISCLTF-NH2),inactive,
CC(C)C[C@H](NC(=O)[C@H](C)NC(=O)[C@H](CO)NC(=O)[C@H](C)NC(=O)[C@@H](NC(=O)[C@H](CC(=O)O)NC(=O)[C@@H](N)CC(C)C)[C@@H](C)O)C(=O)N[C@@H](Cc1ccc(O)cc1)C(=O)N[C@@H](CCCNC(=N)N)C(=O)N[C@@H](CCC(=O)O)C(=O)N[C@@H](C)C(=O)N[C@@H](CC(C)C)C(=O)N[C@@H](CCC(=O)O)C(=O)N[C@@H](CO)C(=O)N1CCC[C@H]1C(N)=O (H-LDTASALYREALESP-NH2),inactive,
CC[C@H](C)[C@H](NC(=O)[C@H](Cc1c[nH]c2ccccc12)NC(=O)[C@@H](NC(=O)CNC(=O)[C@H](Cc1ccccc1)NC(=O)[C@H](CO)NC(=O)[C@@H](NC(=O)[C@H](CC(C)C)NC(=O)[C@H](Cc1ccc(O)cc1)NC(=O)[C@H](CCC(=O)O)NC(=O)[C@@H](N)CC(C)C)C(C)C)C(C)C)C(=O)N[C@@H](CCCNC(=N)N)C(=O)N[C@H](C(=O)N1CCC[C@H]1C(=O)N1CCC[C@H]1C(N)=O)[C@@H](C)O (H-LEYLVSFGVWIRTPP-NH2),inactive,
CC[C@H](C)[C@H](NC(=O)[C@H](Cc1c[nH]cn1)NC(=O)[C@H](Cc1ccccc1)NC(=O)[C@H](Cc1c[nH]c2ccccc12)NC(=O)[C@@H](N)CC(C)C)C(=O)N[C@@H](CO)C(=O)N[C@@H](CS)C(=O)N[C@@H](CC(C)C)C(=O)N[C@H](C(=O)N[C@@H](Cc1ccccc1)C(=O)NCC(=O)N[C@@H](CCCNC(=N)N)C(=O)N[C@@H](CCC(=O)O)C(=O)N[C@H](C(=O)N[C@H](C(N)=O)C(C)C)[C@@H](C)O)[C@@H](C)O (H-LWFHISCLTFGRETV-NH2),inactive,
N=C(N)NCCC[C@H](NC(=O)[C@@H]1CCCN1)C(=O)N[C@@H](CCCNC(=N)N)C(=O)N[C@@H](CCCNC(=N)N)C(=O)N[C@@H](CCCNC(=N)N)C(=O)N[C@@H](CO)C(=O)N[C@@H](CCC(N)=O)C(=O)N[C@@H](CO)C(=O)N[C@@H](CCCNC(=N)N)C(=O)N[C@@H](CCC(=O)O)C(=O)N[C@@H](CO)C(=O)N[C@@H](CCC(N)=O)C(=O)N[C@@H](CS)C(N)=O (H-PRRRRSQSRESQC-NH2),inactive,
C[C@@H](O)[C@H](NC(=O)[C@H](CCCNC(=N)N)NC(=O)[C@H](CCCNC(=N)N)NC(=O)[C@H](CCCNC(=N)N)NC(=O)[C@@H]1CCCN1)C(=O)N1CCC[C@H]1C(=O)N[C@@H](CO)C(=O)N1CCC[C@H]1C(=O)N[C@@H](CCCNC(=N)N)C(=O)N[C@@H](CCCNC(=N)N)C(=O)N[C@@H](CCCNC(=N)N)C(=O)N[C@@H](CCCNC(=N)N)C(=O)N[C@@H](CO)C(=O)N[C@@H](CCC(N)=O)C(=O)N[C@@H](CO)C(N)=O (H-PRRRTPSPRRRRSQS-NH2),inactive,
N=C(N)NCCC[C@H](NC(=O)[C@H](CCCNC(=N)N)NC(=O)[C@H](CCCNC(=N)N)NC(=O)[C@H](CCCNC(=N)N)NC(=O)[C@@H]1CCCN1C(=O)[C@H](CO)NC(=O)[C@H](CCC(N)=O)NC(=O)[C@H](CO)NC(=O)[C@H](CCCNC(=N)N)NC(=O)[C@H](CCCNC(=N)N)NC(=O)[C@H](CCCNC(=N)N)NC(=O)[C@H](CCCNC(=N)N)NC(=O)[C@@H]1CCCN1C(=O)[C@H](CO)NC(=O)[C@@H]1CCCN1)C(N)=O (H-PSPRRRRSQSPRRRR-NH2),inactive,
N=C(N)NCCC[C@H](NC(=O)[C@H](CO)NC(=O)[C@H](CCC(N)=O)NC(=O)[C@H](CO)NC(=O)[C@H](CCCNC(=N)N)NC(=O)[C@H](CCCNC(=N)N)NC(=O)[C@H](CCCNC(=N)N)NC(=O)[C@H](CCCNC(=N)N)NC(=O)[C@@H]1CCCN1C(=O)[C@H](CO)NC(=O)[C@@H](N)CCC(N)=O)C(=O)N[C@@H](CCC(=O)O)C(=O)N[C@@H](CO)C(=O)N[C@@H](CCC(N)=O)C(=O)N[C@@H](CS)C(N)=O (H-QSPRRRRSQSRESQC-NH2),inactive,
C[C@@H](O)[C@H](NC(=O)[C@H](CCCNC(=N)N)NC(=O)[C@H](CCCNC(=N)N)NC(=O)[C@H](CCCNC(=N)N)NC(=O)[C@@H]1CCCN1C(=O)[C@H](CO)NC(=O)[C@H](CCCNC(=N)N)NC(=O)CNC(=O)[C@H](CCCNC(=N)N)NC(=O)[C@@H](N)CCCNC(=N)N)C(=O)N1CCC[C@H]1C(=O)N[C@@H](CO)C(=O)N1CCC[C@H]1C(=O)N[C@@H](CCCNC(=N)N)C(=O)N[C@@H](CCCNC(=N)N)C(N)=O (H-RRGRSPRRRTPSPRR-NH2),inactive,
N=C(N)NCCC[C@H](NC(=O)[C@H](CO)NC(=O)[C@H](CCC(N)=O)NC(=O)[C@H](CO)NC(=O)[C@H](CCCNC(=N)N)NC(=O)[C@H](CCCNC(=N)N)NC(=O)[C@H](CCCNC(=N)N)NC(=O)[C@H](CCCNC(=N)N)NC(=O)[C@@H]1CCCN1C(=O)[C@H](CO)NC(=O)[C@H](CCC(N)=O)NC(=O)[C@H](CO)NC(=O)[C@H](CCCNC(=N)N)NC(=O)[C@@H](N)CCCNC(=N)N)C(=O)N[C@@H](CCC(=O)O)C(N)=O (H-RRSQSPRRRRSQSRE-NH2),inactive,
CC(C)C[C@H](NC(=O)[C@H](Cc1ccc(O)cc1)NC(=O)[C@H](CCC(=O)O)NC(=O)[C@H](CC(C)C)NC(=O)[C@@H](NC(=O)[C@@H](NC(=O)[C@H](CCC(=O)O)NC(=O)[C@H](CCCNC(=N)N)NC(=O)CNC(=O)[C@H](Cc1ccccc1)NC(=O)[C@@H](NC(=O)[C@H](CC(C)C)NC(=O)[C@H](CS)NC(=O)[C@@H](N)CO)[C@@H](C)O)[C@@H](C)O)C(C)C)C(=O)N[C@H](C(N)=O)C(C)C (H-SCLTFGRETVLEYLV-NH2),inactive,
CC(C)[C@H](NC(=O)[C@@H](NC(=O)[C@@H](NC(=O)[C@@H](N)[C@@H](C)O)[C@@H](C)O)C(C)C)C(=O)N[C@@H](CCCNC(=N)N)C(=O)N[C@@H](CCCNC(=N)N)C(=O)N[C@@H](CCCNC(=N)N)C(=O)NCC(=O)N[C@@H](CCCNC(=N)N)C(=O)N[C@@H](CO)C(=O)N1CCC[C@H]1C(=O)N[C@@H](CCCNC(=N)N)C(=O)N[C@@H](CCCNC(=N)N)C(=O)N[C@@H](CCCNC(=N)N)C(=O)N[C@H](C(N)=O)[C@@H](C)O (H-TTVVRRRGRSPRRRT-NH2),inactive,
CSCC[C@H](NC(=O)[C@H](CC(N)=O)NC(=O)[C@@H](NC(=O)[C@H](CC(N)=O)NC(=O)[C@@H](NC(=O)[C@H](Cc1ccc(O)cc1)NC(=O)[C@H](CO)NC(=O)[C@@H](N)C(C)C)C(C)C)C(C)C)C(=O)NCC(=O)N[C@@H](CC(C)C)C(=O)N[C@@H](CCCCN)C(=O)N[C@@H](Cc1ccccc1)C(=O)N[C@@H](CCCNC(=N)N)C(=O)N[C@@H](CCC(N)=O)C(=O)N[C@@H](CC(C)C)C(N)=O (H-VSYVNVNMGLKFRQL-NH2),inactive,

# From ChEMBL document CHEMBL6103552, “Identification of peptide-based hepatitis B virus capsid inhibitors based on the viral core protein” (Bioorg Med Chem Lett, 2025)
